Results as given in US9610369B2, “Compound suitable for detection of vesicular acetylcholine transporter” (HAMAMATSU PHOTONICS K.K., priority 2013, dated 2017).

Key:
[1] = target: T1, vesicular acetylcholine transporters (Macaca mulatta, UniProt A0A1D5QJ59); test: Localization of [^11C]HAPT in individual sites of the brain (PET); type: in vivo; details: brain of Rhesus monkey, 13 sites checked, FIG. 3
T1 construct: Rhesus monkey having a body weight of about 5 kg was immobilized to PET apparatus; from tissue; host or cells: brain of living Rhesus monkey (in vivo PET)
T1 sequence (A0A1D5QJ59 1-532): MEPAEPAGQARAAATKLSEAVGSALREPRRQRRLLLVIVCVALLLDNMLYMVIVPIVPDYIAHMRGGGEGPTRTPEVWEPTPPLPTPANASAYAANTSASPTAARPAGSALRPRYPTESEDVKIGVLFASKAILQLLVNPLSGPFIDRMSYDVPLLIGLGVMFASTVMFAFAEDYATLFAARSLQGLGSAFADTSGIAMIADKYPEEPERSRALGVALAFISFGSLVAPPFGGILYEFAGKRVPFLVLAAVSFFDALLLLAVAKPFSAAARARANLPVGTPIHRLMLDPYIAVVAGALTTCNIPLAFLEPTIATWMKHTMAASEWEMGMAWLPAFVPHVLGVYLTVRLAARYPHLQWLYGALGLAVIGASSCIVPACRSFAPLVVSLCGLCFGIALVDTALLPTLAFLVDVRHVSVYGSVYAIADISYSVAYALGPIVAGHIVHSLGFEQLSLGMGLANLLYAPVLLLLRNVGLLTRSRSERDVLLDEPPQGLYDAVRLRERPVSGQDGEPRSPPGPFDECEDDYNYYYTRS
Method: (§1) Rhesus monkey having a body weight of about 5 kg was immobilized to PET apparatus (trade name, SHR7700 manufactured by Hamamatsu Photonics KK) without anesthesia. After transmission was measured for absorption correction, [^11C]HAPT was intravenously administered and dynamic measurement was performed for 180 minutes.
Localization of [^11C]HAPT in individual sites of the brain of Rhesus monkey was checked. The results of the cases of using (S,S)HAPT-A and (R,R)HAPT-A are shown in FIG. 3 (A); whereas the results of the cases of using (S,S)HAPT-B and (R,R)HAPT-B are shown in FIG. 3 (B).

[2] = target: T1, vesicular acetylcholine transporters; test: PET measurement of time-dependent change of [^11C]HAPT in brain ROIs; type: in vivo, Rhesus monkey (Macaca mulatta); details: brain of Rhesus monkey, FIG. 1; for binding to vesicular acetylcholine transporters: intravenous administration, dynamic PET 180 minutes
Method: as §1
In tomographic images obtained from a single individual by a nuclear magnetic resonance tomography apparatus (hereinafter, MRI), a region of interest (ROI) was determined and then, a time-dependent change of a labeled compound ([^11C]HAPT) in each ROI was obtained.

[3] = target: T1, vesicular acetylcholine transporters; test: Inhibition experiment with vesicular transporter inhibitor vesamicol (PET); type: in vivo, Rhesus monkey; details: L-(−)-vesamicol 1 mg/kg intravenously 30 minutes before tracer, FIG. 4 and 5
Method: Inhibition experiments were performed by using a vesicular transporter inhibitor (vesamicol). Specific procedure employed is as follows.
The cephalic vein or saphenous vein was secured as the route for intravenous administration to test animals and the femoral artery or posterior tibial artery was secured as the route for arterial blood sampling.
Thirty minutes before administration of [^11C]HAPT, L-(−)-vesamicol was intravenously administered in a dose of 1 mg/kg.
The amount of radioactivity of [^11C]HAPT before administration was measured. A total amount of [^11C]HAPT was intravenously administered from an indwelling needle placed in a test animal over about 30 seconds. Simultaneously with initiation of administration, Emission measurement (121 minutes, 55 frames in total including: 10 seconds 6 frames, 30 seconds 6 frames, 1 minute 12 frames, […], 5 minutes 6 frames) was started for monitoring.

SMILES	localization in individual sites of the brain [1]	binding to vesicular acetylcholine transporters [2]	time to reach an equilibrium state from initiation of measurement ([2]; PET)	binding to vesicular acetylcholine transporters with vesamicol compared to control [3]
Cc1cccc2c1C[C@@H](N1CCN(c3ccccc3N)CC1)[C@H](O)C2 [(R,R)[^11C]HAPT-A]	localized most significantly in the putamen	specifically bind to vesicular acetylcholine transporters		
Cc1cccc2c1C[C@@H](O)[C@H](N1CCN(c3ccccc3N)CC1)C2 [(R,R)[^11C]HAPT-B, (2R,3R)-3-(4-(2-aminophenyl)piperazin-1-yl)-8-[^11C]methyl-1,2,3,4-tetrahydronaphthalen-2-ol]	localized most significantly in the putamen	specifically binds to a vesicular acetylcholine transporter		
[11CH3]c1cccc2c1C[C@@H](O)[C@H](N1CCN(c3ccccc3N)CC1)C2 [(R,R)[^11C]HAPT-B, (2R,3R)-3-(4-(2-aminophenyl)piperazin-1-yl)-8-[^11C]methyl-1,2,3,4-tetrahydronaphthalen-2-ol]		specifically bind to vesicular acetylcholine transporters	about 15 minutes	reduces
Cc1cccc2c1C[C@H](N1CCN(c3ccccc3N)CC1)[C@@H](O)C2 [(S,S)[^11C]HAPT-A]	localized most significantly in the putamen	specifically bind to vesicular acetylcholine transporters		
Cc1cccc2c1C[C@H](O)[C@@H](N1CCN(c3ccccc3N)CC1)C2 [(S,S)[^11C]HAPT-B]	non-specific binding in any site	does not bind to vesicular acetylcholine transporters		
